Data reported in PubChem BioAssay (NCI).
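Dose response: 5 concentrations. Exposure: 48 h. Format: 96-well plates. Endpoint: linear interpolation; highest concentration if not reached. TGI: total growth inhibition.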

Tests used:
Test in all cases: NCI-60 cell line screen, 48 h
UACC-257 melanoma = test system: UACC-257 melanoma
OVCAR-4 ovarian = test system: OVCAR-4 ovarian
HOP-92 NSCLC = test system: HOP-92 NSCLC
786-0 renal = test system: 786-0 renal
DU-145 prostate = test system: DU-145 prostate
SR leukemia = test system: SR leukemia
SK-MEL-28 melanoma = test system: SK-MEL-28 melanoma
A549 NSCLC = test system: A549 NSCLC
CAKI-1 renal = test system: CAKI-1 renal
T-47D breast = test system: T-47D breast
BT-549 breast = test system: BT-549 breast
SK-MEL-2 melanoma = test system: SK-MEL-2 melanoma
UO-31 renal = test system: UO-31 renal
OVCAR-8 ovarian = test system: OVCAR-8 ovarian
NCI-H23 lung = test system: NCI-H23 lung
PC-3 prostate = test system: PC-3 prostate
RXF 393 renal = test system: RXF 393 renal
MCF7 breast = test system: MCF7 breast
MDA-MB-435 = test system: MDA-MB-435
HCT-15 colon = test system: HCT-15 colon
HT29 colon = test system: HT29 colon
MOLT-4 leukemia = test system: MOLT-4 leukemia
OVCAR-3 ovarian = test system: OVCAR-3 ovarian
OVCAR-5 ovarian = test system: OVCAR-5 ovarian
SF-539 CNS = test system: SF-539 CNS
K-562 leukemia = test system: K-562 leukemia
RPMI-8226 leukemia = test system: RPMI-8226 leukemia
SW-620 colon = test system: SW-620 colon
HCC-2998 colon = test system: HCC-2998 colon
CCRF-CEM leukemia = test system: CCRF-CEM leukemia
KM12 colon = test system: KM12 colon
M14 melanoma = test system: M14 melanoma
NCI-H460 lung = test system: NCI-H460 lung
UACC-62 melanoma = test system: UACC-62 melanoma
NCI/ADR-RES ovarian = test system: NCI/ADR-RES ovarian
ACHN renal = test system: ACHN renal
SNB-75 CNS = test system: SNB-75 CNS
HCT-116 colon = test system: HCT-116 colon
SN12C renal = test system: SN12C renal
A498 renal = test system: A498 renal
EKVX NSCLC = test system: EKVX NSCLC
SNB-19 CNS = test system: SNB-19 CNS
NCI-H226 lung = test system: NCI-H226 lung
HOP-62 NSCLC = test system: HOP-62 NSCLC
LOX IMVI melanoma = test system: LOX IMVI melanoma
SK-MEL-5 melanoma = test system: SK-MEL-5 melanoma
IGROV1 ovarian = test system: IGROV1 ovarian
U251 CNS = test system: U251 CNS
SF-295 CNS = test system: SF-295 CNS
MDA-MB-231 breast = test system: MDA-MB-231 breast
MDA-N = test system: MDA-N
COLO 205 colon = test system: COLO 205 colon
SF-268 CNS = test system: SF-268 CNS
TK-10 renal = test system: TK-10 renal
HS 578T breast = test system: HS 578T breast
HL-60(TB) leukemia = test system: HL-60(TB) leukemia
NCI-H522 lung = test system: NCI-H522 lung
MALME-3M melanoma = test system: MALME-3M melanoma
SK-OV-3 ovarian = test system: SK-OV-3 ovarian

Cc1cc2c(-c3ccccc3)cc(=O)[nH]c2cc1N
TGI (UACC-257 melanoma): > 100 µM | TGI (OVCAR-4 ovarian): > 100 µM | TGI (HOP-92 NSCLC): > 100 µM | TGI (786-0 renal): > 100 µM | TGI (DU-145 prostate): > 100 µM | TGI (SR leukemia): > 100 µM | TGI (SK-MEL-28 melanoma): > 100 µM | TGI (A549 NSCLC): > 100 µM | TGI (CAKI-1 renal): > 100 µM | TGI (T-47D breast): > 100 µM | TGI (BT-549 breast): > 100 µM | TGI (SK-MEL-2 melanoma): > 100 µM | TGI (UO-31 renal): > 100 µM | TGI (OVCAR-8 ovarian): > 100 µM | TGI (NCI-H23 lung): > 100 µM | TGI (PC-3 prostate): > 100 µM | TGI (RXF 393 renal): > 100 µM | TGI (MCF7 breast): > 100 µM | TGI (MDA-MB-435): > 100 µM | TGI (HCT-15 colon): > 100 µM | TGI (HT29 colon): > 100 µM | TGI (MOLT-4 leukemia): > 100 µM | TGI (OVCAR-3 ovarian): > 100 µM | TGI (OVCAR-5 ovarian): > 100 µM | TGI (SF-539 CNS): > 100 µM | TGI (K-562 leukemia): > 100 µM | TGI (RPMI-8226 leukemia): > 100 µM | TGI (SW-620 colon): > 100 µM | TGI (HCC-2998 colon): > 100 µM | TGI (CCRF-CEM leukemia): > 100 µM | TGI (KM12 colon): > 100 µM | TGI (M14 melanoma): > 100 µM | TGI (NCI-H460 lung): > 100 µM | TGI (UACC-62 melanoma): > 100 µM | TGI (NCI/ADR-RES ovarian): > 100 µM | TGI (ACHN renal): > 100 µM | TGI (SNB-75 CNS): > 100 µM | TGI (HCT-116 colon): > 100 µM | TGI (SN12C renal): > 100 µM | TGI (A498 renal): > 100 µM | TGI (EKVX NSCLC): > 100 µM | TGI (SNB-19 CNS): > 100 µM | TGI (NCI-H226 lung): > 100 µM | TGI (HOP-62 NSCLC): > 100 µM | TGI (LOX IMVI melanoma): > 100 µM | TGI (SK-MEL-5 melanoma): > 100 µM | TGI (IGROV1 ovarian): > 100 µM | TGI (U251 CNS): > 100 µM | TGI (SF-295 CNS): > 100 µM | TGI (MDA-MB-231 breast): > 100 µM | TGI (MDA-N): > 100 µM | TGI (COLO 205 colon): > 100 µM

CC1(C)CCc2c(c(N=Nc3ccccc3)c3ccccc3c2O)O1
TGI (UACC-257 melanoma): 39.8 µM | TGI (OVCAR-4 ovarian): > 100 µM | TGI (HOP-92 NSCLC): 63.9 µM | TGI (786-0 renal): 30.8 µM | TGI (DU-145 prostate): 83 µM | TGI (SK-MEL-28 melanoma): > 100 µM | TGI (A549 NSCLC): > 100 µM | TGI (CAKI-1 renal): 69.1 µM | TGI (T-47D breast): > 100 µM | TGI (BT-549 breast): > 100 µM | TGI (SK-MEL-2 melanoma): 34.5 µM | TGI (UO-31 renal): 60.3 µM | TGI (SF-268 CNS): > 100 µM | TGI (OVCAR-8 ovarian): > 100 µM | TGI (TK-10 renal): 46.1 µM | TGI (NCI-H23 lung): > 100 µM | TGI (PC-3 prostate): 71.8 µM | TGI (RXF 393 renal): 33.6 µM | TGI (MCF7 breast): 47 µM | TGI (MDA-MB-435): 83.5 µM | TGI (HS 578T breast): > 100 µM | TGI (HCT-15 colon): > 100 µM | TGI (HT29 colon): 34 µM | TGI (MOLT-4 leukemia): > 100 µM | TGI (OVCAR-3 ovarian): 53.1 µM | TGI (OVCAR-5 ovarian): > 100 µM | TGI (SF-539 CNS): 69.6 µM | TGI (K-562 leukemia): > 100 µM | TGI (RPMI-8226 leukemia): > 100 µM | TGI (SW-620 colon): > 100 µM | TGI (CCRF-CEM leukemia): > 100 µM | TGI (KM12 colon): > 100 µM | TGI (M14 melanoma): 88.8 µM | TGI (NCI-H460 lung): 53.3 µM | TGI (UACC-62 melanoma): > 100 µM | TGI (NCI/ADR-RES ovarian): > 100 µM | TGI (HL-60(TB) leukemia): > 100 µM | TGI (ACHN renal): 33.5 µM | TGI (NCI-H522 lung): > 100 µM | TGI (HCT-116 colon): 51.2 µM | TGI (SN12C renal): 40.1 µM | TGI (A498 renal): 44.1 µM | TGI (EKVX NSCLC): 59.5 µM | TGI (SNB-19 CNS): > 100 µM | TGI (NCI-H226 lung): > 100 µM | TGI (HOP-62 NSCLC): > 100 µM | TGI (LOX IMVI melanoma): 54 µM | TGI (SK-MEL-5 melanoma): > 100 µM | TGI (IGROV1 ovarian): > 100 µM | TGI (U251 CNS): 61.3 µM | TGI (SF-295 CNS): 57.3 µM | TGI (MALME-3M melanoma): > 100 µM | TGI (MDA-MB-231 breast): 67 µM | TGI (SK-OV-3 ovarian): 50.3 µM | TGI (MDA-N): 41.7 µM | TGI (COLO 205 colon): > 100 µM
